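Results reflect a 48-hour exposure of cells in 96-well plates to compound at five concentrations. GI50 marks 50% less growth. Definition used: TGI = concentration required for complete inhibition of growth.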
Assays:
Experiment in all cases: NCI tumour cell line growth inhibition, 48 h
NCI-H522 lung = test system: NCI-H522 lung
CAKI-1 renal = test system: CAKI-1 renal
NCI-H460 lung = test system: NCI-H460 lung
HS 578T breast = test system: HS 578T breast
SR leukemia = test system: SR leukemia
SK-OV-3 ovarian = test system: SK-OV-3 ovarian
RXF 393 renal = test system: RXF 393 renal
SF-539 CNS = test system: SF-539 CNS
SF-268 CNS = test system: SF-268 CNS
PC-3 prostate = test system: PC-3 prostate
A549 NSCLC = test system: A549 NSCLC
UO-31 renal = test system: UO-31 renal
HL-60(TB) leukemia = test system: HL-60(TB) leukemia
A498 renal = test system: A498 renal
SK-MEL-2 melanoma = test system: SK-MEL-2 melanoma
HOP-92 NSCLC = test system: HOP-92 NSCLC
SF-295 CNS = test system: SF-295 CNS
HCT-15 colon = test system: HCT-15 colon
NCI/ADR-RES ovarian = test system: NCI/ADR-RES ovarian
HT29 colon = test system: HT29 colon
MALME-3M melanoma = test system: MALME-3M melanoma
SN12C renal = test system: SN12C renal
MDA-MB-435 = test system: MDA-MB-435
UACC-257 melanoma = test system: UACC-257 melanoma
LOX IMVI melanoma = test system: LOX IMVI melanoma
MCF7 breast = test system: MCF7 breast
COLO 205 colon = test system: COLO 205 colon
OVCAR-8 ovarian = test system: OVCAR-8 ovarian
M14 melanoma = test system: M14 melanoma

With Oc1ccc(CSc2nnc(-c3ccc(Cl)cc3)n2-c2ccccc2)c2cccnc12 the TGI (NCI-H522 lung) was > 100000 nM, the GI50 (CAKI-1 renal) was 1270 nM and the TGI (CAKI-1 renal) was > 100000 nM. The GI50 (NCI-H460 lung) was 368 nM, the TGI (NCI-H460 lung) was > 100000 nM and the GI50 (HS 578T breast) was 364 nM. The TGI (HS 578T breast) was > 23600 nM, the GI50 (SR leukemia) was 264 nM and the TGI (SR leukemia) was > 100000 nM. The GI50 (SK-OV-3 ovarian) was 2340 nM, the TGI (SK-OV-3 ovarian) was > 100000 nM and the GI50 (RXF 393 renal) was 1790 nM. The TGI (RXF 393 renal) was > 100000 nM, the GI50 (SF-539 CNS) was 444 nM and the TGI (SF-539 CNS) was > 100000 nM. The GI50 (SF-268 CNS) was 633 nM, the TGI (SF-268 CNS) was > 100000 nM and the GI50 (PC-3 prostate) was 636 nM. The TGI (PC-3 prostate) was > 100000 nM, the GI50 (A549 NSCLC) was 2070 nM and the TGI (A549 NSCLC) was > 100000 nM. The GI50 (UO-31 renal) was 273 nM, the TGI (UO-31 renal) was > 100000 nM and the GI50 (HL-60(TB) leukemia) was 584 nM. The TGI (HL-60(TB) leukemia) was > 100000 nM, the GI50 (A498 renal) was 3890 nM and the TGI (A498 renal) was > 100000 nM. The GI50 (SK-MEL-2 melanoma) was 1340 nM, the TGI (SK-MEL-2 melanoma) was > 72100 nM and the GI50 (HOP-92 NSCLC) was 351 nM. For the same compound, the TGI (HOP-92 NSCLC) was 6340 nM, the GI50 (SF-295 CNS) was 732 nM and the TGI (SF-295 CNS) was > 100000 nM. The GI50 (HCT-15 colon) was 162 nM, the TGI (HCT-15 colon) was > 100000 nM and the GI50 (NCI/ADR-RES ovarian) was 211 nM. For the same compound, the TGI (NCI/ADR-RES ovarian) was > 100000 nM, the GI50 (HT29 colon) was > 100000 nM and the TGI (HT29 colon) was > 100000 nM. For the same compound, the GI50 (MALME-3M melanoma) was 2390 nM, the TGI (MALME-3M melanoma) was > 100000 nM and the GI50 (SN12C renal) was 908 nM. The TGI (SN12C renal) was > 100000 nM, the GI50 (MDA-MB-435) was 517 nM and the TGI (MDA-MB-435) was > 100000 nM. The GI50 (UACC-257 melanoma) was 2980 nM, the TGI (UACC-257 melanoma) was > 100000 nM and the GI50 (LOX IMVI melanoma) was 425 nM. The TGI (LOX IMVI melanoma) was > 100000 nM, the GI50 (MCF7 breast) was 410 nM and the TGI (MCF7 breast) was > 100000 nM. The GI50 (COLO 205 colon) was > 100000 nM, the TGI (COLO 205 colon) was > 100000 nM and the GI50 (OVCAR-8 ovarian) was 516 nM. For the same compound, the TGI (OVCAR-8 ovarian) was > 100000 nM, the GI50 (M14 melanoma) was 510 nM and the TGI (M14 melanoma) was > 100000 nM.

— PubChem BioAssay (NCI)
